Legend:
[1] = Effective half life in rat; assay type: ADME, organism-based; conditions: in vivo, read-out: t1/2eff (converted)
[2] = Plasma clearance in rat; assay type: ADME, organism-based
[3] = Fraction unbound in rat plasma; assay type: ADME, cell-free
[4] = Bioavailability in rat; assay type: ADME, organism-based; conditions: in vivo

half-life [1] [min] | clearance [2] [mL/min/kg] | fraction unbound [3] | bioavailability [4] [%] | SMILES
31.2 | 69 | 0.019 | 32 | C[C@H]1CN(c2cc(-c3n[nH]c4ccc(OC5(C)CC5)cc34)ncn2)CCO1
56.4 | 65 | 0.008 | 20 | CC(C)Oc1cc2c(-c3cc(N4C[C@@H](C)O[C@@H](C)C4)ncn3)n[nH]c2cc1F
29.4 | 78 | 0.051 | 36 | CC1(Oc2ccc3[nH]nc(-c4cc(N5CCO[C@@H](CO)C5)ncn4)c3c2)CC1
34.2 | 64 | 0.017 | 25 | CC(C)Oc1ccc2[nH]nc(-c3cc(N4C[C@@H](C)O[C@@H](C)C4)ncn3)c2c1

— ChEMBL document CHEMBL4145628, “Strategy for Extending Half-life in Drug Design and Its Significance” (ACS Med Chem Lett, 2018)
